Data as given in patent US11639350B2, “Heteroaryldihydropyrimidine derivatives and methods of treating hepatitis B infections” (Janssen Pharmaceutica NV, priority 2018, dated 2023).

Experiments:
HBV = HBV inhibitory activity: HBV DNA in the culture medium of HepG2.2.15 cells by q-PCR; assay type: cell-based; settings: Hepatitis B virus, HepG2.2.15, 144 h, HepG2.2.15 cells, 6 days of compound treatment, HBV DNA in culture medium by q-PCR, highest concentration 10 μM; read-out: EC50
Experimental: (§1) HBV replication inhibition by the compounds of this invention as well as cytotoxicity determination was determined in cells infected or transfected with HBV, or cells with stably integrated HBV, such as HepG2.2.15 cells (Sells et al. 1987). The method used herein is as follows.
(§2) The HepG2.2.15 cells were seeded into 96-well plate in 2% FBS (Fetal bovine serum) culture medium at the density of 40,000 cells/well and 5,000 cells/well for HBV inhibitory activity and cytotoxicity determination, respectively. After seeding, the cell plates were incubated at 37° C., 5% CO2 overnight. The next day, medium containing compounds were added to treat the cells for 6 days with medium refreshed once in the middle of the treatment. Eight dose points with 3 folds dilution of each compound were adopted and the highest concentration of the compounds was 10 μM and 100 μM for HBV inhibitory activity and cytotoxicity determination, respectively.
The HBV DAN change in the cell culture medium induced by the compounds was measured by q-PCR (quantitative polymerase chain reaction) method. The HBV DNA in the culture medium was extracted using QIAamp 96 DNA Blood Kit according to the manual and then quantified by q-PCR using the primers and probe in the table below: […]
(§3) EC50 and CC50 values are calculated by the GraphPad Prism software and are averages where multiple measurements were made. EC50 values for the other exemplified compounds were either not measured or higher than 1 μM.

[1] = Cytotoxicity determination in HepG2.2.15 cells (CCK-8); assay type: cell-based; settings: human, 6 days of compound treatment, CCK-8, highest concentration 100 μM
Experimental: as §1, §2
After 6 days of compounds treatment, 20 μl CCK-8 (Cell Counting Kit-8 (Tianjin Biolite company)) reagents were added to each well of cytotoxicity assay plates, the plate was incubated at 37° C., 5% CO2 for 2.5 hours and the absorbance at 450 nm wavelength was measured, at the same time the absorbance at 630 nm wavelength was read as reference.
as §3

Structure (SMILES) | EC50 (HBV) [nM] | CC50 at 6 days [1] [nM]
CCOC(=O)C1=C(C2CCN(S(=O)(=O)[C@H]3CC[C@@H](C(=O)O)CC3)CC2)NC(c2nccs2)=NC1c1ccc(F)c(F)c1Cl (relative stereo) [Compound 354B, (cis)-4-((4-(6-(2-Chloro-3,4-difluorophenyl)-5-(ethoxycarbonyl)-2-(thiazol-2-yl)-3,6-dihydropyrimidin-4-yl)piperidin-1-yl)sulfonyl)cyclohexane-carboxylic Acid] | 18 | 7000
CCOC(=O)C1=C(C2CCN(S(=O)(=O)[C@H]3CC[C@H](C(=O)O)CC3)CC2)NC(c2nccs2)=NC1c1ccc(F)c(F)c1Cl (relative stereo) [Compound 354C, (trans)-4-((4-(6-(2-Chloro-3,4-difluorophenyl)-5-(ethoxycarbonyl)-2-(thiazol-2-yl)-3,6-dihydropyrimidin-4-yl)piperidin-1-yl)sulfonyl)cyclohexane-carboxylic Acid] | 15 | 7900
COC(=O)C1=C(C2CCN(S(=O)(=O)[C@H]3C[C@@H](CO)C3)CC2)NC(c2nccs2)=NC1c1ccc(F)cc1Cl (relative stereo) [Compound 357B, (cis)-Methyl 4-(2-chloro-4-fluorophenyl)-6-(1-((3-(hydroxymethyl)cyclobutyl)sulfonyl)piperidin-4-yl)-2-(thiazol-2-yl)-1,4-dihydropyrimidine-5-carboxylate] | 36 | 15400
COC(=O)C1=C(C2CCN(S(=O)(=O)[C@H]3C[C@H](C(=O)O)C3)C2)NC(c2nccs2)=NC1c1ccc(F)cc1Cl (relative stereo) [Compound 367A, (trans)-3-((3-(6-(2-chloro-4-fluorophenyl)-5-(methoxycarbonyl)-2-(thiazol-2-yl)-3,6-dihydropyrimidin-4-yl)pyrrolidin-1-yl)sulfonyl)cyclobutanecarboxylic Acid] | 303 | 33400
COC(=O)C1=C(C2CCN(S(=O)(=O)[C@H]3C[C@@H](C(=O)O)C3)C2)NC(c2nccs2)=NC1c1ccc(F)cc1Cl (relative stereo) [Compound 367B, (cis)-3-((3-(6-(2-chloro-4-fluorophenyl)-5-(methoxycarbonyl)-2-(thiazol-2-yl)-3,6-dihydropyrimidin-4-yl)pyrrolidin-1-yl)sulfonyl)cyclobutanecarboxylic Acid] | 800 | > 100000
CCOC(=O)C1=C(C2CCN(S(=O)(=O)[C@H]3C[C@H](C(=O)O)C3)CC2)NC(c2nccs2)=NC1c1ccc(F)c(F)c1Cl (relative stereo) [Compound 370B, (trans)-3-((4-(6-(2-Chloro-3,4-difluorophenyl)-5-(ethoxycarbonyl)-2-(thiazol-2-yl)-3,6-dihydropyrimidin-4-yl)piperidin-1-yl)sulfonyl)cyclobutanecarboxylic Acid] | 4 | 23200
CCOC(=O)C1=C(C2CCN(S(=O)(=O)[C@H]3C[C@@H](C(=O)O)C3)CC2)NC(c2nccs2)=NC1c1ccc(F)c(F)c1Cl (relative stereo) [Compound 370D, (cis)-3-((4-(6-(2-Chloro-3,4-difluorophenyl)-5-(ethoxycarbonyl)-2-(thiazol-2-yl)-3,6-dihydropyrimidin-4-yl)piperidin-1-yl)sulfonyl)cyclobutanecarboxylic Acid] | 40 | 26300
CCOC(=O)C1=C([C@@H]2CCN(S(C)(=O)=O)[C@@H](CF)C2)NC(c2nccs2)=NC1c1ccc(F)cc1Cl (relative stereo) [Compound 404N, ethyl 4-(2-chloro-4-fluorophenyl)-6-((trans)-2-(fluoromethyl)-1-(methylsulfonyl)piperidin-4-yl)-2-(thiazol-2-yl)-1,4-dihydropyrimidine-5-carboxylate] | 155 | 17700
COC(=O)C1=C(C2CCN(S(=O)(=O)[C@H]3C[C@H](C(=O)O)C3)CC2)NC(c2nccs2)=NC1c1cccc(F)c1Br (relative stereo) [Compound 439B, (trans)-3-((4-(6-(2-Bromo-3-fluorophenyl)-5-(methoxycarbonyl)-2-(thiazol-2-yl)-3,6-dihydropyrimidin-4-yl)piperidin-1-yl)sulfonyl)cyclobutanecarboxylic Acid] | 66 | 53800
COC(=O)C1=C(C2CCN(S(=O)(=O)[C@H]3CC[C@H](CC(=O)O)CC3)CC2)NC(c2nccs2)=NC1c1ccc(F)cc1Cl (relative stereo) [Compound 476A, (trans)-2-(4-((4-(6-(2-Chloro-4-fluorophenyl)-5-(methoxycarbonyl)-2-(thiazol-2-yl)-3,6-dihydropyrimidin-4-yl)piperidin-1-yl)sulfonyl)cyclohexyl)acetic Acid] | 14 | 30400
COC(=O)C1=C(C2CCN(S(=O)(=O)[C@H]3CC[C@@H](CC(=O)O)CC3)CC2)NC(c2nccs2)=NC1c1ccc(F)cc1Cl (relative stereo) [Compound 476B, (cis)-2-(4-((4-(6-(2-Chloro-4-fluorophenyl)-5-(methoxycarbonyl)-2-(thiazol-2-yl)-3,6-dihydropyrimidin-4-yl)piperidin-1-yl)sulfonyl)cyclohexyl)acetic Acid] | 44 | 30200
COC(=O)C1=C(C2CCN(S(=O)(=O)[C@H]3CC[C@H](CC(=O)O)CC3)CC2)NC(c2nccs2)=NC1c1ccc(F)c(F)c1Cl (relative stereo) [Compound 478A, (trans)-2-(4-((4-(6-(2-Chloro-3,4-difluorophenyl)-5-(methoxycarbonyl)-2-(thiazol-2-yl)-3,6-dihydropyrimidin-4-yl)piperidin-1-yl)sulfonyl)cyclohexyl)acetic Acid] | 21 | 9900
COC(=O)C1=C(C2CCN(C(C)=O)CC2)NC(c2nccs2)=NC1c1ccc(F)cc1Cl (single isomer, unassigned) [Compound 2B, Methyl 6-(1-acetylpiperidin-4-yl)-4-(2-chloro-4-fluorophenyl)-2-(thiazol-2-yl)-1,4-dihydropyrimidine-5-carboxylate] | 338 | > 100000
COC(=O)C1=C(C2CCN(C)C(=O)C2)NC(c2nccs2)=NC1c1cccc(F)c1Cl (single isomer, unassigned) [Compound 4B, Methyl 4-(2-chloro-3-fluorophenyl)-6-(1-methyl-2-oxopiperidin-4-yl)-2-(thiazol-2-yl)-1,4-dihydropyrimidine-5-carboxylate] | 351 | > 10000
COC(=O)C1=C([C@H]2CC[C@H](C(=O)OC)CC2)NC(c2nccs2)=NC1c1cccc(F)c1Cl (single isomer, unassigned) [Compound 16X, Methyl 4-(2-chloro-3-fluorophenyl)-6-(trans-4-(methoxycarbonyl)-cyclohexyl)-2-(thiazol-2-yl)-1,4-dihydropyrimidine-5-carboxylate] | 49 | 29300
COC(=O)C1=C([C@H]2CC[C@H](C(=O)O)CC2)NC(c2nccs2)=NC1c1ccc(F)cc1Cl (single isomer, unassigned) [Compound 19, trans-4-(6-(2-Chloro-4-fluorophenyl)-5-(methoxycarbonyl)-2-(thiazol-2-yl)-3,6-dihydropyrimidin-4-yl)cyclohexanecarboxylic Acid] | 62 | 8700
CCOC(=O)C1=C([C@H]2CC[C@H](C(=O)OC)CC2)NC(c2nccs2)=NC1c1ccc(F)cc1Cl (single isomer, unassigned) [Compound 20X, Ethyl 4-(2-chloro-4-fluorophenyl)-6-(trans-4-(methoxycarbonyl)-cyclohexyl)-2-(thiazol-2-yl)-1,4-dihydropyrimidine-5-carboxylate] | 52 | 27200
CCOC(=O)C1=C([C@H]2CC[C@H](C(=O)O)CC2)NC(c2nccs2)=NC1c1ccc(F)cc1Cl (single isomer, unassigned) [Compound 21, trans-4-(6-(2-Chloro-4-fluorophenyl)-5-(ethoxycarbonyl)-2-(thiazol-2-yl)-3,6-dihydropyrimidin-4-yl)cyclohexanecarboxylic Acid] | 31 | 9900
CCOC(=O)C1=C([C@H]2CC[C@H](C(=O)O)CC2)NC(c2nccs2)=NC1c1cccc(F)c1Cl (single isomer, unassigned) [Compound 23, trans-4-(6-(2-Chloro-3-fluorophenyl)-5-(ethoxycarbonyl)-2-(thiazol-2-yl)-3,6-dihydropyrimidin-4-yl)cyclohexanecarboxylic Acid] | 566 | 47500
COC(=O)C1=C([C@H]2CCC[C@@H](C(=O)OC)C2)NC(c2nccs2)=NC1c1cccc(F)c1Cl (single isomer, unassigned) [Compound 24Q, cis-Methyl 4-(2-chloro-3-fluorophenyl)-6-(3-(methoxycarbonyl)-cyclohexyl)-2-(thiazol-2-yl)-1,4-dihydropyrimidine-5-carboxylate] | 964 | 3520
